This passage reports IC50 results from patent US10246462B2, “Chemokine receptor modulators and uses thereof” (FLX Bio, Inc., priority 2016, dated 2019).

Broadly, the IC50 is the point on the concentration scale where inhibition reaches its midpoint.

Counter-ions that a name gives are not always drawn. Like-named read-outs stand apart in the source and are kept apart here.

This assay deals with CCR4 (Homo sapiens (Human), UniProt P51679). The experiment in a line: Calcium mobilization (Ca Flux) assay. The assay is classed as cell-based. The protocol:
Calcium Mobilization Assay. Calcium mobilization experiments may be performed by labeling the human T-cell line CEM with […] dye (45 min at room temperature), washing with PBS, and re-suspending into flux buffer (HBSS with 1% FBS).

CCR4, sequence (P51679 whole entry): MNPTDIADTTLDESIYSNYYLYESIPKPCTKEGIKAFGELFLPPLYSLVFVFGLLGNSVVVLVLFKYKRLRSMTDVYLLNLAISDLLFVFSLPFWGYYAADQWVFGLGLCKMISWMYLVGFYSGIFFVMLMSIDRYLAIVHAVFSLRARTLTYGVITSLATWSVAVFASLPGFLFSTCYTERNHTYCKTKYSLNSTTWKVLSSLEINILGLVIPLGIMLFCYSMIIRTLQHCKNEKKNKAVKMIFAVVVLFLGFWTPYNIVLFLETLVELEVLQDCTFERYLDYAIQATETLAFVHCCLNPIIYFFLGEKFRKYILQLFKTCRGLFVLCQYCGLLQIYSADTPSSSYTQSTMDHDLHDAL

For the molecule `Cc1nn([C@H](C)c2ccc(Cl)cc2Cl)c2nc(N3CCC(N4CCCC(CCC(=O)O)C4)C(C)C3)cnc12` (mixture of isomers) [Example 41, 3-(1′-(1-((R)-1-(2,4-dichlorophenyl)ethyl)-3-methyl-1H-pyrazolo[3,4-b]pyrazin-6-yl)-3′-methyl-[1,4′-bipiperidin]-3-yl)propanoic acid], the IC50 is > 0.5 µM.
On to `Cc1nn([C@H](C)c2ccc(Cl)cc2Cl)c2nc(N3CCC(N4CCC[C@H]4CCC(=O)O)C[C@@H]3C)cnc12` (mixture of isomers) [Example 50, 3-((2S)-1-((2S)-1-(1-((R)-1-(2,4-Dichlorophenyl)ethyl)-3-methyl-1H-pyrazolo[3,4-b]pyrazin-6-yl)-2-methylpiperidin-4-yl)pyrrolidin-2-yl)propanoic acid 2,2,2-trifluoroacetate], for which the IC50 was > 0.5 µM.
Consider `Cc1nn([C@H](C)c2ccc(Cl)cc2Cl)c2nc(N3CCC(N4CCC[C@H]4C4CC4C(=O)O)C(C)C3)cnc12` (mixture of isomers) [Example 54, 2-((2S)-1-(1-(1-((R)-1-(2,4-Dichlorophenyl)ethyl)-3-methyl-1H-pyrazolo[3,4-b]pyrazin-6-yl)-3-methylpiperidin-4-yl)pyrrolidin-2-yl)cyclopropane-1-carboxylic acid], for which the IC50 is > 0.5 µM.
Regarding `COC(C[C@@H]1CCCN1C1CCN(c2cnc3c(C)nn([C@H](C)c4ccc(Cl)cc4Cl)c3n2)CC1C)C(=O)O` (mixture of isomers) [Example 55, 3-((2S)-1-(1-(1-((R)-1-(2,4-Dichlorophenyl)ethyl)-3-methyl-1H-pyrazolo[3,4-b]pyrazin-6-yl)-3-methylpiperidin-4-yl)pyrrolidin-2-yl)-2-methoxypropanoic acid 2,2,2-trifluoroacetae], the IC50 was > 0.5 µM.
For `CC1CC(c2cnc3c(C#N)nn([C@H](C)c4ccc(Cl)cc4Cl)c3n2)=CCC1N1CCC[C@H]1CCC(=O)O` (mixture of isomers) [Example 74, 3-((2S)-1-(4-(3-Cyano-1-((R)-1-(2,4-dichlorophenyl)ethyl)-1H-pyrazolo[3,4-b]pyrazin-6-yl)-6-methylcyclohex-3-en-1-yl)pyrrolidin-2-yl)propanoic acid 2,2,2-trifluoroacetate], the IC50 is < 0.1 µM.
For `COC[C@@H]1CCCN1C1CC=C(c2cnc3c(C#N)nn([C@H](C)c4ccc(Cl)cc4Cl)c3n2)CC1C` (mixture of isomers) [Example 84, 1-((R)-1-(2,4-Dichlorophenyl)ethyl)-6-(4-((S)-2-(methoxymethyl)pyrrolidin-1-yl)-5-methylcyclohex-1-en-1-yl)-1H-pyrazolo[3,4-b]pyrazine-3-carbonitrile hydrochloride], the IC50 was in the range of 0.1 to 0.5 µM.
On the same count and under the same terms, with `CC1CC(c2cnc3c(C#N)nn([C@H](C)c4ccc(Cl)cc4Cl)c3n2)=CCC1N1CCC[C@H]1CC(=O)O` (mixture of isomers) [Example 85, 2-((2S)-1-(4-(3-Cyano-1-((R)-1-(2,4-dichlorophenyl)ethyl)-1H-pyrazolo[3,4-b]pyrazin-6-yl)-6-methylcyclohex-3-en-1-yl)pyrrolidin-2-yl)acetic acid 2,2,2-trifluoroacetate] the figure was 0.1 to 0.5 µM; with `CCOC(=O)c1nn(C(C)c2ccc(Cl)cc2Cl)c2nc(N3CCC(N4CCCCC4)CC3)cnc12` (racemic) [Example 1, Ethyl 6-([1,4′-bipiperidin]-1′-yl)-1-(1-(2,4-dichlorophenyl)ethyl)-1H-pyrazolo[3,4-b]pyrazine-3-carboxylate hydrochloride], > 0.5 µM; with `Cc1nn([C@H](C)c2ccc(Cl)cc2Cl)c2nc(N3CCC(N4CCC[C@H]4CCC(O)C(F)(F)F)C(C)C3)cnc12` (single isomer, unassigned) [Example 46, hydrochloride], 0.1 to 0.5 µM.
Same read-out and setting: the figure for `Cc1nn([C@H](C)c2ccc(Cl)cc2Cl)c2nc(N3CCC(N4CCC[C@H]4CCC(O)C(F)(F)F)C(C)C3)cnc12` (single isomer, unassigned) [Example 47, hydrochloride] is 0.1 to 0.5 µM; for `Cc1nn([C@H](C)c2ccc(Cl)cc2Cl)c2nc(N3CCC(N4CCC[C@H]4CC(F)C(=O)O)C(C)C3)cnc12` (single isomer, unassigned) [Example 56] it is 0.1 to 0.5 µM; for `Cc1nn([C@H](C)c2ccc(Cl)cc2Cl)c2nc(N3CCC(N4CCC[C@H]4CC(F)C(=O)O)C(C)C3)cnc12` (single isomer, unassigned) [Example 57] it is > 0.5 µM.
With `Cc1nn([C@H](C)c2ccc(Cl)cc2Cl)c2nc(C3=CCC(N4CCC[C@H]4CCC(=O)O)C(C)C3)cnc12` (stereo in doubt) [Example 72, 3-((S)-1-((1R,6S)-4-(1-((R)-1-(2,4-Dichlorophenyl)ethyl)-3-methyl-1H-pyrazolo[3,4-b]pyrazin-6-yl)-6-methylcyclohex-3-en-1-yl)pyrrolidin-2-yl)propanoic acid hydrochloride], the IC50 (hydrochloride) was > 0.5 µM.
Consider `CCOC(=O)c1nn(C(C)c2ccc(Cl)cc2Cl)c2nc(N3CCC(N4CCCCC4)C(C)C3)cnc12` (stereo not shown) [Example 2, Ethyl 1-(1-(2,4-dichlorophenyl)ethyl)-6-(3′-methyl-[1,4′-bipiperidin]-1′-yl)-1H-pyrazolo[3,4-b]pyrazine-3-carboxylate hydrochloride], for which the IC50 was 0.1 to 0.5 µM.
Turning to `CC1CCCCN1C1CCN(c2cnc3c(C(N)=O)nn(C(C)c4ccc(Cl)cc4Cl)c3n2)CC1` (stereo not shown) [Example 3, 1-(1-(2,4-Dichlorophenyl)ethyl)-6-(2-methyl-[1,4′-bipiperidin]-1′-yl)-1H-pyrazolo[3,4-b]pyrazine-3-carboxamide hydrochloride], the concentration for half-maximal inhibition (IC50) was > 0.5 µM.
On to `CC1CN(c2cnc3c(C(N)=O)nn(C(C)c4ccc(Cl)cc4Cl)c3n2)CCC1N1CCCCC1` (stereo not shown) [Example 4, 1-(1-(2,4-Dichlorophenyl)ethyl)-6-(3′-methyl-[1,4′-bipiperidin]-1′-yl)-1H-pyrazolo[3,4-b]pyrazine-3-carboxamide hydrochloride], for which the IC50 was 0.1 to 0.5 µM.
Consider `CC1CN(c2cnc3c(C(N)=O)nn([C@H](C)c4ccc(Cl)cc4Cl)c3n2)CCC1N1CCCCC1` (stereo partly drawn) [Example 5, 1-((R)-1-(2,4-Dichlorophenyl)ethyl)-6-(3′-methyl-[1,4′-bipiperidin]-1′-yl)-1H-pyrazolo[3,4-b]pyrazine-3-carboxamide 2,2,2-trifluoroacetate], for which the IC50 fell in the range of 0.1 to 0.5 µM.
The same measure, in the same setting: with `CCC1CN(c2cnc3c(C(N)=O)nn(C(C)c4ccc(Cl)cc4Cl)c3n2)CCC1N1CCCCC1` (stereo not shown) [Example 6, 1-(1-(2,4-Dichlorophenyl)ethyl)-6-(3′-ethyl-[1,4′-bipiperidin]-1′-yl)-1H-pyrazolo[3,4-b]pyrazine-3-carboxamide hydrochloride] the figure was 0.1 to 0.5 µM; with `CCC1CN(c2cnc3c(C#N)nn(C(C)c4ccc(Cl)cc4Cl)c3n2)CCC1N1CCCCC1` (stereo not shown) [Example 7, 1-(1-(2,4-Dichlorophenyl)ethyl)-6-(3′-ethyl-[1,4′-bipiperidin]-1′-yl)-1H-pyrazolo[3,4-b]pyrazine-3-carbonitrile 2,2,2-trifluoroacetate], 0.1 to 0.5 µM.
Still for that read-out and setting: the figure for `CC1CN(c2cnc3cnn(C(C)c4ccc(Cl)cc4Cl)c3n2)CCC1N1CCCCC1` (stereo not shown) [Example 8, 1-(1-(2,4-Dichlorophenyl)ethyl)-6-(3′-methyl-[1,4′-bipiperidin]-1′-yl)-1H-pyrazolo[3,4-b]pyrazine hydrochloride] is 0.1 to 0.5 µM; for `CCC1CN(c2cnc3cnn(C(C)c4ccc(Cl)cc4Cl)c3n2)CCC1N1CCCCC1` (stereo not shown) [Example 9, 1-(1-(2,4-Dichlorophenyl)ethyl)-6-(3′-ethyl-[1,4′-bipiperidin]-1′-yl)-1H-pyrazolo[3,4-b]pyrazine hydrochloride] it is 0.1 to 0.5 µM.
Regarding `CC1CN(c2cnc3c(C(F)(F)F)nn(C(C)c4ccc(Cl)cc4Cl)c3n2)CCC1N1CCCCC1` (stereo not shown) [Example 10, 1-(1-(2,4-Dichlorophenyl)ethyl)-6-(3′-methyl-[1,4′-bipiperidin]-1′-yl)-3-(trifluoromethyl)-1H-pyrazolo[3,4-b]pyrazine hydrochloride], the IC50 was > 0.5 µM.
As to `CCOC(=O)c1nn(Cc2ccc(Cl)cc2Cl)c2nc(N3CCC(N4CCCCC4)C(C)C3)cnc12` (stereo not shown) [Example 11, Ethyl 1-(2,4-dichlorobenzyl)-6-(3′-methyl-[1,4′-bipiperidin]-1′-yl)-1H-pyrazolo[3,4-b]pyrazine-3-carboxylate hydrochloride], the IC50 fell in the range of 0.1 to 0.5 µM.
Same read-out and setting: with `Cc1nn([C@H](C)c2ccc(Cl)cc2Cl)c2nc(N3CC[C@H](N4CCCC4)[C@H](C)C3)cnc12` [Example 12, 1-((R)-1-(2,4-Dichlorophenyl)ethyl)-3-methyl-6-((3R,4S)-3-methyl-4-(pyrrolidin-1-yl)piperidin-1-yl)-1H-pyrazolo[3,4-b]pyrazine hydrochloride] the figure was < 0.1 µM; with `Cc1nn([C@H](C)c2ccc(Cl)cc2Cl)c2nc(N3CC[C@H](N4CCCCCCC4)[C@H](C)C3)cnc12` [Example 16, 6-((3R,4S)-4-(Azocan-1-yl)-3-methylpiperidin-1-yl)-1-((R)-1-(2,4-dichlorophenyl)ethyl)-3-methyl-1H-pyrazolo[3,4-b]pyrazine hydrochloride], < 0.1 µM; with `Cc1nn([C@H](C)c2ccc(Cl)cc2Cl)c2nc(N3CC[C@H](N4CC=CC4)[C@H](C)C3)cnc12` [Example 17, 1-((R)-1-(2,4-Dichlorophenyl)ethyl)-6-((3R,4S)-4-(2,5-dihydro-1H-pyrrol-1-yl)-3-methylpiperidin-1-yl)-3-methyl-1H-pyrazolo[3,4-b]pyrazine hydrochloride], 0.1 to 0.5 µM.
Turning to `Cc1nn([C@H](C)c2ccc(Cl)cc2Cl)c2nc(N3CC(C)C(N4CCCC4)C[C@@H]3C)cnc12` (stereo partly drawn) [Example 18, 1-((R)-1-(2,4-Dichlorophenyl)ethyl)-6-((2S)-2,5-dimethyl-4-(pyrrolidin-1-yl)piperidin-1-yl)-3-methyl-1H-pyrazolo[3,4-b]pyrazine hydrochloride], the IC50 lay within 0.1 to 0.5 µM.
As to `Cc1nn([C@H](C)c2ccc(Cl)cc2Cl)c2nc(N3C[C@@H](C)[C@@H](N4CCCC4)C[C@@H]3C)cnc12` [Example 19, 1-((R)-1-(2,4-Dichlorophenyl)ethyl)-6-((2S,4S,5R)-2,5-dimethyl-4-(pyrrolidin-1-yl)piperidin-1-yl)-3-methyl-1H-pyrazolo[3,4-b]pyrazine hydrochloride], the IC50 is 0.1 to 0.5 µM.
